Legend:
Amaranthus retroflexus = assay: Test of herbicidal activities (greenhouse pot method); type: in vivo; conditions: Amaranthus retroflexus, 360 h; single dose 300 g ai./h, treated before/after germination, 15 days later, greenhouse pot; read-out: Herbicidal activity Amaranthus retroflexus (inhibition level)
In short: (§1)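 Weeds were sown in soil-filled pots at 15–30 °C and treated once by spray tower at 300 g ai./h, either before emergence or post-emergence at the 2-leaf stage, in three replicates with an untreated control. Symptoms were scored 15 days later into five classes from A (≥90%) to E (<50%).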

Brassica juncea = assay: as above; type: in vivo; conditions: Brassica juncea, 360 h; single dose 300 g ai./h, treated before/after germination, 15 days later, greenhouse pot; read-out: Herbicidal activity Brassica juncea (inhibition level)
In short: as §1

Echinochloa crusgalli = assay: as above; type: in vivo; conditions: Echinochloa crus-galli, 360 h; single dose 300 g ai./h, treated before/after germination, 15 days later, greenhouse pot; read-out: Herbicidal activity Echinochloa crusgalli (inhibition level)
In short: as §1

Setaria viridis = assay: as above; type: in vivo; conditions: Setaria viridis, 360 h; single dose 300 g ai./h, treated before/after germination, 15 days later, greenhouse pot; read-out: Herbicidal activity Setaria viridis (inhibition level)
In short: as §1

Chenopodium album = assay: as above; type: in vivo; conditions: Chenopodium album, 360 h; single dose 300 g ai./h, treated before/after germination, 15 days later, greenhouse pot; read-out: Herbicidal activity Chenopodium album (inhibition level)
In short: as §1

Digiatria sanguinalis = assay: as above; type: in vivo; conditions: 360 h; single dose 300 g ai./h, treated before/after germination, 15 days later, greenhouse pot; read-out: Herbicidal activity Digiatria sanguinalis (inhibition level)
In short: as §1

melting point	SMILES	inhibition at 300 g/ha (Amaranthus retroflexus)	inhibition at 300 g/ha (Brassica juncea)	inhibition at 300 g/ha (Echinochloa crusgalli)	inhibition at 300 g/ha (Setaria viridis)	inhibition at 300 g/ha (Chenopodium album)	inhibition at 300 g/ha (Digiatria sanguinalis)
162 to 164 °C	Cc1nn(-c2cc3nc([S+]([O-])Cc4ccccc4)sc3cc2F)c(=O)n1C (stereo not drawn) [Compound 101, 1-(2-(benzylsulfinyl)-6-fluorobenzo[d]thiazol-5-yl)-3,4-dimethyl-1H-1,2,4-triazol-5(4H)-one]	60 to 80%	50 to 60%	80 to 90%	60 to 80%	80 to 90%	60 to 80%
199 to 201 °C	Cc1nn(-c2cc3nc([S+](C)[O-])sc3cc2F)c(=O)n1C (stereo not drawn) [Compound 102, 1-(6-fluoro-2-(methylsulfinyl)benzo[d]thiazol-5-yl)-3,4-dimethyl-1H-1,2,4-triazol-5(4H)-one]	80 to 90%	60 to 80%	< 50%	60 to 80%	90 to 100%	50 to 60%
196 to 198 °C	Cc1nn(-c2cc3nc(S(=O)(=O)Cc4ccccc4Cl)sc3cc2Cl)c(=O)n1C(F)F [Compound 39, 1-(2-(2-chlorobenzylsulfonyl)-6-chlorobenzo[d]thiazol-5-yl)-4-(difluoromethyl)-3-methyl-1H-1,2,4-triazol-5(4H)-one]	80 to 90%	80 to 90%	< 50%	60 to 80%	60 to 80%	60 to 80%

Reference: patent US7666890B2, “Synthesis and herbicidal activity of 1- (2-substituted benzo[d]thiazol-5-yl)-1H-1,2,4-triazol-5(4H)-one derivatives” (Huazhong Normal University, priority 2007, dated 2010)
